In US20230174484A1, “ANTAGONISTS OF GPR39 PROTEIN” (Oregon Health & Science University, priority 2020, published 2023):
pKi: −log10 of the molar value. Entries after “also recorded” stand apart in the source; their conditions may differ.

Assays:
human GPR39 receptor = target: T1, human GPR39 receptor (Homo sapiens, UniProt O43194); experiment: Measurement of intracellular calcium response in PC3 cells (FLIPR), antagonism of the C3 agonist response; type: cell-based; settings: functional pKi (modified Cheng-Prusoff), inhibition of the C3 (TC-G 1008) response at EC90, 30 μM ZnCl2, read-out: fpKi activity
T1 construct: PC3 Cells, Expressing the Endogenous Human GPR39 Receptor; endogenous in cells; host or cells: PC3 (human prostate adenocarcinoma) cells
T1 sequence (O43194 1-453): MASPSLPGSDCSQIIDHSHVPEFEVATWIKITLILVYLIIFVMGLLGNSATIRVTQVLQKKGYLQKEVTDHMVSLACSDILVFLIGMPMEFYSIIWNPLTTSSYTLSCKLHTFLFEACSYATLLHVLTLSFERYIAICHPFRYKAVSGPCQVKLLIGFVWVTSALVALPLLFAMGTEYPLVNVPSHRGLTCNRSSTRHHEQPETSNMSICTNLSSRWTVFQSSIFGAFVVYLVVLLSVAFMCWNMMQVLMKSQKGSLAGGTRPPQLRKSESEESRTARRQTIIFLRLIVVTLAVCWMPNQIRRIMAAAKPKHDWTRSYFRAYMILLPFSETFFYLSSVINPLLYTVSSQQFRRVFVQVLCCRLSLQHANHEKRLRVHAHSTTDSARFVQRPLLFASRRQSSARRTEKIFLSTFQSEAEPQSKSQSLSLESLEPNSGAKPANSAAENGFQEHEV
Procedure, shortened: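 Potency was reported as fpKi, converted by modified Cheng-Prusoff from four-parameter IC50 fits against an EC90 C3 agonist challenge. Calcium-6 FLIPR readings used PC3 cells naturally expressing human GPR39, in pH 7.4 HEPES buffer containing 30 μM final ZnCl2. Score bands: +/± <5.2, + 5.2–5.9, ++ 6.0–6.5, +++ 6.6–7.2, ++++ ≥7.3.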

[1] = test system: wild-type mice, left coronary artery occlusion/reperfusion; experiment: No reflow after coronary occlusion and reperfusion in mice (Thioflavin S / Evans Blue); type: in vivo, mouse; settings: WT mice, 1.5 mg/kg i.v. 15 min after occlusion, 45 min occlusion, 2 hr reperfusion, versus vehicle
Experimental: FIGS. 4A-4D depict no reflow data from WT, GPR39 KO, and EXAMPLE 34 mice. Thioflavin-S and Evans Blue were injected ante-mortem and measurement of no reflow (area without Evans Blue on the right panel). […] EXAMPLE 34 was given 15 min after coronary occlusion which lasted a total of 45 min followed by 2 hour reperfusion. The role of pericytes was examined in no reflow after reperfusion in a separate group of animals since infarct size and no reflow post-mortem cciuid not be measured in the same animals, Thioflavin S, a perfusion marker, was injected into the left coronary artery after reperfusion. Thereafter, the left coronary artery was briefly re-occluded and 0.2 ml Evan's blue (1%) injected. The heart was then excised, transversely sliced into 5-6 pieces and photographed under UV light (under which Thioflavin S fluoresces blue) to identify the area of no reflow and under standard lighting to identify the AAR, and the no reflow zone expressed as a percent of the AAR.

[2] = test system: spontaneously hypertensive rat (SHR); experiment: Acute intravenous effect on blood pressure in the spontaneously hypertensive rat; type: in vivo; settings: for BP reduction, percentage of pre-administration baseline: lowest value over 10 min, isoflurane anaesthesia
Experimental: Decrease in BP was expressed as a percentage of baseline BP (*p<0.05).
The effect of acute intravenous administration of EXAMPLE 34 on BP in the spontaneously hypertensive rat (SHR) was determined. […] At 10 mg/kg, BP was reduced by 15%, and at 25 mg/kg, the reduction exceeded 20% of pre-administration baseline. EXAMPLE 34 was administered slowly via bolus injections through the jugular vein in a vehicle consisting of 100% PEG 400, and the change in BP after administration (lowest value over 10 min) was normalized to pre-administration baseline. This was the first proof of principle that pharmacological inhibition of GPR39 reduced BP acutely in a well-established animal model of hypertension.

[3] = test system: wild-type mice, left coronary artery occlusion/reperfusion; experiment: Infarct size after left coronary artery occlusion and reperfusion in mice; type: in vivo, mouse; settings: WT mice, single dose 15 min after occlusion, 45 min occlusion, 2 hr reperfusion, versus vehicle
Experimental: FIG. 3A depicts the timeline of experimental design. EXAMPLE 34 was given 15 min after left coronary occlusion as a single dose during a 45 min occlusion followed by 2 hr of reperfusion.
Infarct size in both FIG. 3C and FIG. 3D is expressed as a percent of AAR defined by Evans Blue. Summary data are depicted to the right of actual images from single representative animals.
The role of pericytes in tissue necrosis following coronary occlusion was examined (FIG. 3A).

pKi (human GPR39 receptor)	SMILES	further results
5.20 to 5.90	O=C(Nc1ccc(C(=O)N2CCN(c3ncnc4ccsc34)CC2)c(N2CCCCCC2)c1)C1CC1 [EXAMPLE 34, N-[3-(azepan-1-yl)-4-(4-thieno[3,2-d]pyrimidin-4-ylpiperazine-1-carbonyl)phenyl]Cyclopropanecarboxamide]	No reflow zone / AAR ratio [1]: negligible no reflow zones; also recorded: significant reduction in no reflow/AAR ratio; BP reduction, percentage of pre-administration baseline ([2]; 10 mg/kg i.v. bolus): 15%; BP reduction, percentage of pre-administration baseline ([2]; 25 mg/kg i.v. bolus): exceeded 20%; Effect on BP in SHR ([2]; i.v., concentrations higher than 10 mg/kg): significantly reduced BP; Infarct size/area at risk (AAR) ratio [3]: significantly smaller; also recorded: significant reduction in infarct size
6.00 to 6.50	O=C(Nc1ccc(C(=O)N2CCN(Cc3cccnc3)CC2)c(N2CCCCCC2)c1)C1CC1 [Example 32, N-(3-(azepan-1-yl)-4-(4-(pyridin-3-ylmethyl)piperazine-1-carbonyl)phenyl)cyclopropanecarboxamide]	–
5.20 to 5.90	CN1CCN(c2ccc(CNC(=O)c3ccc(NC(=O)C4CC4)cc3N3CCCCCC3)cc2)CC1 [Example 56, 2-(azepan-1-yl)-4-(cyclopropanecarbonylamino)-N-[[4-(4-methylpiperazin-1-yl)phenyl]methyl]benzamide]	–
≥ 7.30	O=C(Nc1ccc(C(=O)N2CCS(=O)(=O)CC2)c(N2CCC(C(F)(F)F)C2)c1)C1CC1 (single isomer, unassigned) [Example 183a, N-[4-(1,1-dioxo-1,4-thiazinane-4-carbonyl)-3-[3r or 3S-(trifluoromethyl)pyrrolidin-1-yl]phenyl]cyclopropanecarboxamide]	–
5.20 to 5.90	O=C(Nc1ccc(C(=O)N2CCNCC2c2ccccc2F)c(N2CCCC2)c1)C1CC1 (racemic) [Example 157]	–
6.60 to 7.20	Cc1ccn(-c2cc(NC(=O)C3CC3)ccc2C(=O)N2CCC(C(F)(F)F)CC2)n1 [Example 156]	–
6.00 to 6.50	CCCN1CCN(C(=O)c2ccc(NC(=O)C3CC3)cc2N2CC3CC3C2)CC1 (stereo not shown) [Example 12, N-(3-(3-azabicyclo[3.1.0]hexan-3-yl)-4-(4-propylpiperazine-1-carbonyl)phenyl)cyclopropanecarboxamide]	–
≥ 7.30	O=C(Nc1ccc(C(=O)N2CCC3(CC2)COC3)c(N2CCC(C(F)(F)F)C2)c1)C1CC1 (single isomer, unassigned) [Example 213a, N-[4-(2-oxa-7-azaspiro[3.5]nonane-7-carbonyl)-3-[3R or 3S-(trifluoromethyl)pyrrolidin-1yl]phenyl]cyclopropanecarboxamide]	–
